The results in this text go back to US12209102B2, “Heterocyclic compounds and uses thereof” (Kumquat Biosciences Inc., priority 2022, dated 2025).

As a reminder, the IC50 is the concentration that inhibits the measured activity by half.

What all share (type): biochemical
One assay has as its target T1, K-Ras WT (Homo sapiens, UniProt P01116).
T1 construct: made in house; host or cells: E. coli BL21 (DE3)
In words: HTRF resonance energy transfer assay, K-Ras WT / SOS1 interaction. As to conditions: HTRF assay of Example 5; read-out: IC50 against K-Ras WT. An excerpt: (§1) This assay can be also used to assess a selective inhibition or reduction of signaling output of a mutant Ras protein relative to a wildtype, or relative to a different mutant Ras protein. For example, the equilibrium interaction of wildtype Kras or K-Ras mutant (e.g., wildtype or a mutant thereof) with SOS1 (e.g., hSOS1) can be assessed as a proxy or an indication for a subject compound's ability to bind and inhibit Ras protein. HTRF assay detects from (i) a fluorescence resonance energy transfer (FRET) donor (e.g., antiGST-Europium) that is bound to GST-tagged K-Ras mutant to (ii) a FRET acceptor (e.g., anti-6His-XL665) bound to a His-tagged hSOS1.
(§2) The assay buffer can contain˜5 mM HEPES pH 7.4, ˜150 mM NaCl, ˜ 1 mM DTT, 0.05% BSA and 0.0025%(v/v) Igepal. A Ras working solution is prepared in an assay buffer containing typically a suitable amount of the protein construct (e.g., GST-tagged K-Ras mutant) and the FRET donor (e.g., antiGST-Eu(K) from Cisbio, France). A SOS1 working solution is prepared in an assay buffer containing suitable amount of the protein construct (e.g., His-hSOS1) and the FRET acceptor (e.g., anti-6His-XL665 from Cisbio, France). A suitable amount of the protein construct will depend on the range of activity or range of IC50 values being detected or under investigation. For detecting IC50 within a range of 500 nM, the protein constructs of the same range of molarity can be utilized.
(§3) A fixed volume of DMSO with or without test compound is transferred into a 384-well plate. Ras working solution is added to all wells of the test plate. SOS1 working solution is added to all wells except for those that are subsequently filled the inhibitor control solution. Upon incubation for about 10 minutes or longer, the fluorescence is measured with a M1000Pro plate reader (Tecan) using HTRF detection (excitation 337 nm, emission 1: 620 nm, emission 2: 665 nm). Compounds are tested in duplicates at different concentrations (for example, 10 μM, 2.5 μM, 0.63 μM, 0.16 μM, 0.04 μM, 0.01 μM test compound). The ratiometric data (i.e., emission 2 divided by emission 1) is used to calculate IC50 values against Ras using GraphPad Prism (GraphPad software). Following this general procedure, samples were tested with or without a subject compound disclosed herein including compounds exemplified in Table 1 to assess their abilities to inhibit a K-Ras mutant relative to another mutant or WT. Signaling output measured in terms of IC50 values can be obtained, a ratio of IC50 against one mutant relative to another mutant can be calculated. For instance, a selective reduction of K-Ras G12D signaling output can be evidenced by a ratio greater than one. In particular, a selective reduction of K-Ras G12D signaling relative to K-Ras WT signaling is evidenced as the ratio of IC50 (against K-Ras WT) to IC50 (against K-Ras G12D) is greater than 1.

A further assay addresses T2, K-Ras G12S (Homo sapiens, UniProt P01116, G12S).
T2 construct: made in house; host or cells: E. coli BL21 (DE3)
In words: HTRF resonance energy transfer assay, K-Ras G12S / SOS1 interaction. As to conditions: HTRF assay of Example 5; read-out: IC50 against K-Ras G12S.
From the text: as §1, §2, §3

In a further assay the target is T3, K-Ras G12V (Homo sapiens, UniProt P01116, G12V).
T3 construct: made in house; host or cells: E. coli BL21 (DE3)
In words: HTRF resonance energy transfer assay, K-Ras G12V / SOS1 interaction. The following applies: HTRF assay of Example 5; read-out: IC50 against K-Ras G12V.
From the text: as §1, §2, §3

T2 sequence (P01116 1-188 isoform P01116-2 G12S): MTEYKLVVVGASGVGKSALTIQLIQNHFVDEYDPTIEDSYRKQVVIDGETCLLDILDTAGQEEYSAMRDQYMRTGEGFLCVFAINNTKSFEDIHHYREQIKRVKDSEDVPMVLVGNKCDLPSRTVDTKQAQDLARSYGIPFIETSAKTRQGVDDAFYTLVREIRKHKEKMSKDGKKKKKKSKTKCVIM
T3 sequence (P01116 1-188 isoform P01116-2 G12V): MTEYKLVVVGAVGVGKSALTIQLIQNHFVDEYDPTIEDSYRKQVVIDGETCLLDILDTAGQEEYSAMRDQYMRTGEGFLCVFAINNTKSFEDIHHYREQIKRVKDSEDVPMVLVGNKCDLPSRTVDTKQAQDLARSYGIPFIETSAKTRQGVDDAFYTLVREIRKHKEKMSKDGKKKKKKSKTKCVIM
T1 sequence (P01116 1-188 isoform P01116-2): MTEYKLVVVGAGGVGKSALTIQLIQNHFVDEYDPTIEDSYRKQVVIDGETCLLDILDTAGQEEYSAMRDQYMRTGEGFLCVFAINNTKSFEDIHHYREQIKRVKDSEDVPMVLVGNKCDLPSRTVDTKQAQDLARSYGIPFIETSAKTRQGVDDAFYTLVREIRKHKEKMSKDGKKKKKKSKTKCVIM

As for `N#Cc1c(N)sc2c(F)ccc(-c3c(Cl)c4c5c(nc(OC[C@@]67CCCN6C[C@H](F)C7)nc5c3F)N(CC(F)F)C(c3cnco3)CO4)c12` (single isomer, unassigned) [Compound 860], the IC50 at K-Ras WT, at K-Ras G12S and at K-Ras G12V was less than 100 nM each time.
For the compound `N#Cc1c(N)sc2c(F)ccc(-c3c(Cl)c4c5c(nc(OC[C@@]67CCCN6C[C@H](F)C7)nc5c3F)N(CC(F)F)[C@H](CNC=O)CO4)c12` [Compound 627, N-(((5R)-9-(2-amino-3-cyano-7-fluorobenzo[b]thiophen-4-yl)-8-chloro-4-(2,2-difluoroethyl)-10-fluoro-2-(((2R,7aS)-2-fluorotetrahydro-1H-pyrrolizin-7a(5H)-yl)methoxy)-5,6-dihydro-4H-[1,4]oxazepino[5,6,7-de]quinazolin-5-yl)methyl)formamide], the IC50 at K-Ras G12S and on K-Ras G12V was less than 100 nM in each case.
As for `C=C(F)C1COc2c(Cl)c(-c3ccc(F)c4sc(N)c(C#N)c34)c(F)c3nc(OC[C@@]45CCCN4C[C@H](F)C5)nc(c23)N1CC(F)F` (stereo partly drawn) [Compound 651, 2-amino-4-(8-chloro-4-(2,2-difluoroethyl)-10-fluoro-2-(((2R,7aS)-2-fluorotetrahydro-1H-pyrrolizin-7a(5H)-yl)methoxy)-5-(1-fluorovinyl)-5,6-dihydro-4H-[1,4]oxazepino[5,6,7-de]quinazolin-9-yl)-7-fluorobenzo[b]thiophene-3-carbonitrile], the IC50 at K-Ras G12V is less than 100 nM.
For the compound `N#Cc1c(N)sc2c(F)ccc(-c3c(Cl)c4c5c(nc(OC[C@@]67CCCN6C[C@H](F)C7)nc5c3F)N(CC(F)F)C(C3CCN3C(=O)C3CN3)CO4)c12` (stereo partly drawn) [Compound 666, 2-amino-4-(5-(1-(aziridine-2-carbonyl)azetidin-2-yl)-8-chloro-4-(2,2-difluoroethyl)-10-fluoro-2-(((2R,7aS)-2-fluorotetrahydro-1H-pyrrolizin-7a(5H)-yl)methoxy)-5,6-dihydro-4H-[1,4]oxazepino[5,6,7-de]quinazolin-9-yl)-7-fluorobenzo[b]thiophene-3-carbonitrile], the IC50 at K-Ras WT and at K-Ras G12S was less than 100 nM in each case.
On to `N#Cc1c(N)sc2c(F)ccc(-c3c(Cl)c4c5c(nc(OC[C@@]67CCCN6C[C@H](F)C7)nc5c3F)N(CC(F)F)C(C3CN(C(=O)C5CN5)C3)CO4)c12` (stereo partly drawn) [Compound 762, 2-amino-4-(5-(1-(aziridine-2-carbonyl)azetidin-3-yl)-8-chloro-4-(2,2-difluoroethyl)-10-fluoro-2-(((2R,7aS)-2-fluorotetrahydro-1H-pyrrolizin-7a(5H)-yl)methoxy)-5,6-dihydro-4H-[1,4]oxazepino[5,6,7-de]quinazolin-9-yl)-7-fluorobenzo[b]thiophene-3-carbonitrile], for which the IC50 at K-Ras WT, on K-Ras G12S and on K-Ras G12V was less than 100 nM each time.
As to `N#Cc1c(N)sc2c(F)ccc(-c3c(Cl)c4c5c(nc(OC[C@@]67CCCN6C[C@H](F)C7)nc5c3F)N(CC(F)F)[C@@H](CNC(=O)CC3COC3)CO4)c12` [Compound 766, N-(((5S)-9-(2-amino-3-cyano-7-fluorobenzo[b]thiophen-4-yl)-8-chloro-4-(2,2-difluoroethyl)-10-fluoro-2-(((2R,7aS)-2-fluorotetrahydro-1H-pyrrolizin-7a(5H)-yl)methoxy)-5,6-dihydro-4H-[1,4]oxazepino[5,6,7-de]quinazolin-5-yl)methyl)-2-(oxetan-3-yl)acetamide], the IC50 at K-Ras WT, at K-Ras G12S and on K-Ras G12V was less than 100 nM each time.
For `N#Cc1c(N)sc2c(F)ccc(-c3c(Cl)c4c5c(nc(OC[C@@]67CCCN6C[C@H](F)C7)nc5c3F)N(CC(F)F)C(c3cncs3)CO4)c12` (stereo partly drawn) [Compound 789, 2-amino-4-(8-chloro-4-(2,2-difluoroethyl)-10-fluoro-2-(((2R,7aS)-2-fluorotetrahydro-1H-pyrrolizin-7a(5H)-yl)methoxy)-5-(thiazol-5-yl)-5,6-dihydro-4H-[1,4]oxazepino[5,6,7-de]quinazolin-9-yl)-7-fluorobenzo[b]thiophene-3-carbonitrile], the IC50 on K-Ras WT, at K-Ras G12S and on K-Ras G12V was less than 100 nM throughout.
Turning to `N#Cc1c(N)sc2c(F)ccc(-c3c(Cl)c4c5c(nc(OC[C@@]67CCCN6C[C@H](F)C7)nc5c3F)N(C3C5CC3N(C(=O)C(F)F)C5)CCO4)c12` (stereo partly drawn) [Compound 886, 2-amino-4-(8-chloro-4-(2-(2,2-difluoroacetyl)-2-azabicyclo[2.1.1]hexan-5-yl)-10-fluoro-2-(((2R,7aS)-2-fluorotetrahydro-1H-pyrrolizin-7a(5H)-yl)methoxy)-5,6-dihydro-4H-[1,4]oxazepino[5,6,7-de]quinazolin-9-yl)-7-fluorobenzo[b]thiophene-3-carbonitrile], the IC50 on K-Ras WT and at K-Ras G12S was less than 100 nM in each case.
`N#Cc1c(N)sc2c(F)ccc(-c3c(Cl)c4c5c(nc(OC[C@@]67CCCN6C[C@H](F)C7)nc5c3F)N(CC(F)F)C(C3CCCN3C(=O)[C@H]3CN3)CO4)c12` (stereo partly drawn) [Compound 1007, 2-amino-4-(5-(1-((R)-aziridine-2-carbonyl)pyrrolidin-2-yl)-8-chloro-4-(2,2-difluoroethyl)-10-fluoro-2-(((2R,7aS)-2-fluorotetrahydro-1H-pyrrolizin-7a(5H)-yl)methoxy)-5,6-dihydro-4H-[1,4]oxazepino[5,6,7-de]quinazolin-9-yl)-7-fluorobenzo[b]thiophene-3-carbonitrile]: the IC50 at K-Ras WT was less than 100 nM.
On to `CC(OC(F)F)C12CC(N3CCOc4c(Cl)c(-c5ccc(F)c6sc(N)c(C#N)c56)c(F)c5nc(OC[C@@]67CCCN6C[C@H](F)C7)nc3c45)(C1)C2` (stereo partly drawn) [Compound 1081, 2-amino-4-(8-chloro-4-(3-(1-(difluoromethoxy)ethyl)bicyclo[1.1.1]pentan-1-yl)-10-fluoro-2-(((2R,7aS)-2-fluorotetrahydro-1H-pyrrolizin-7a(5H)-yl)methoxy)-5,6-dihydro-4H-[1,4]oxazepino[5,6,7-de]quinazolin-9-yl)-7-fluorobenzo[b]thiophene-3-carbonitrile], for which the IC50 at K-Ras WT, on K-Ras G12S and at K-Ras G12V was less than 100 nM each time.
As for `N#Cc1c(N)sc2c(F)ccc(-c3c(Cl)c4c5c(nc(OC[C@@]67CCCN6C[C@H](F)C7)nc5c3F)N(CC(F)F)[C@H](C(F)F)CO4)c12` [Compound 1099, 2-amino-4-((S)-8-chloro-4-(2,2-difluoroethyl)-5-(difluoromethyl)-10-fluoro-2-(((2R,7aS)-2-fluorotetrahydro-1H-pyrrolizin-7a(5H)-yl)methoxy)-5,6-dihydro-4H-[1,4]oxazepino[5,6,7-de]quinazolin-9-yl)-7-fluorobenzo[b]thiophene-3-carbonitrile], the IC50 on K-Ras WT, at K-Ras G12S and on K-Ras G12V was less than 100 nM in each case.
For the compound `C[C@@H](O)[C@@H]1COc2c(Cl)c(-c3ccc(F)c4sc(N)c(C#N)c34)c(F)c3nc(OC[C@@]45CCCN4C[C@H](F)C5)nc(c23)N1CC(F)F` [Compound 1111, 2-amino-4-((5S)-8-chloro-4-(2,2-difluoroethyl)-10-fluoro-2-(((2R,7aS)-2-fluorotetrahydro-1H-pyrrolizin-7a(5H)-yl)methoxy)-5-((R)-1-hydroxyethyl)-5,6-dihydro-4H-[1,4]oxazepino[5,6,7-de]quinazolin-9-yl)-7-fluorobenzo[b]thiophene-3-carbonitrile], at K-Ras G12V, the IC50 was less than 100 nM.
On the same count and under the same terms, as for `C[C@@H]1CC(CO)Oc2c(Cl)c(-c3ccc(F)c4sc(N)c(C#N)c34)c(F)c3nc(OC[C@@]45CCCN4C[C@H](F)C5)nc(c23)N1` (stereo partly drawn) [Compound 1210, 2-amino-4-((5R)-9-chloro-11-fluoro-2-(((2R,7aS)-2-fluorotetrahydro-1H-pyrrolizin-7a(5H)-yl)methoxy)-7-(hydroxymethyl)-5-methyl-4,5,6,7-tetrahydro-[1,5]oxazocino[4,3,2-de]quinazolin-10-yl)-7-fluorobenzo[b]thiophene-3-carbonitrile], the figure is less than 100 nM.
